Measurements published in US20100267561A1, “HERBICIDAL PYRIDAZINONE DERIVATIVES” (priority 2007, published 2010).

Assays:
Assay in all cases: Test C pre-/postemergence plant response
Assay type in all cases: in vivo
Conditions in all cases: Preemergence
[1] = test system: Italian ryegrass (Lolium multiflorum)
Summary of the method: (§1)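 Visual rating vs untreated controls, 0 (no effect) to 100 (complete control), after 15–25 days in a controlled growth environment. Pre- and postemergence treatments; post plants at 1- to 4-leaf stage, 2–18 cm. Formulation: non-phytotoxic solvent mix plus surfactant.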

[2] = test system: annual bluegrass (Poa annua)
Summary of the method: as §1

[3] = test system: blackgrass (Alopecurus myosuroides)
Summary of the method: as §1

[4] = test system: canarygrass (Phalaris minor)
Summary of the method: as §1

[5] = test system: downy bromegrass (Bromus tectorum)
Summary of the method: as §1

[6] = test system: green foxtail (Setaria viridis)
Summary of the method: as §1

[7] = test system: pigweed (Amaranthus retroflexus)
Summary of the method: as §1

[8] = test system: spring barley (Hordeum vulgare)
Summary of the method: as §1

[9] = test system: spring wheat (Triticum aestivum)
Summary of the method: as §1

[10] = test system: wild mustard (Sinapis arvensis)
Summary of the method: as §1

wild oat (Avena fatua) = test system: wild oat (Avena fatua)
Summary of the method: as §1

[11] = test system: windgrass (Apera spica-venti)
Summary of the method: as §1

[12] = test system: winter barley (Hordeum vulgare)
Summary of the method: as §1

[13] = test system: winter wheat (Triticum aestivum)
Summary of the method: as §1

[14] = 8 g ai/ha, scale 0 to 100 (0 no effect, 100 complete control)
[15] = 16 g ai/ha, scale 0 to 100 (0 no effect, 100 complete control)
[16] = 31 g ai/ha, scale 0 to 100 (0 no effect, 100 complete control)
[17] = 62 g ai/ha, scale 0 to 100, 0 no effect, 100 complete control

C#CCOC(=O)Oc1cnn(C)c(=O)c1-n1nc(-c2ccc(Cl)cc2)cc1C [Compound 58]
Plant response rating, Ryegrass, Italian [1, 14]: 25 | Plant response rating, Ryegrass, Italian [1, 15]: 65 | Plant response rating, Ryegrass, Italian [1, 16]: 100 | Plant response rating, Ryegrass, Italian [1, 17]: 100 | Plant response rating, Bluegrass [2, 14]: 0 | Plant response rating, Bluegrass [2, 15]: 0 | Plant response rating, Bluegrass [2, 16]: 0 | Plant response rating, Bluegrass [2, 17]: 0 | Plant response rating, Blackgrass [3, 14]: 0 | Plant response rating, Blackgrass [3, 15]: 65 | Plant response rating, Blackgrass [3, 16]: 98 | Plant response rating, Blackgrass [3, 17]: 100 | Plant response rating, Canarygrass [4, 14]: 0 | Plant response rating, Canarygrass [4, 15]: 60 | Plant response rating, Canarygrass [4, 16]: 90 | Plant response rating, Canarygrass [4, 17]: 95 | Plant response rating, Bromegrass, Downy [5, 14]: 0 | Plant response rating, Bromegrass, Downy [5, 15]: 15 | Plant response rating, Bromegrass, Downy [5, 16]: 70 | Plant response rating, Bromegrass, Downy [5, 17]: 75 | Plant response rating, Foxtail, Green [6, 14]: 35 | Plant response rating, Foxtail, Green [6, 15]: 98 | Plant response rating, Foxtail, Green [6, 16]: 100 | Plant response rating, Foxtail, Green [6, 17]: 100 | Plant response rating, Pigweed [7, 14]: 0 | Plant response rating, Pigweed [7, 17]: 0 | Plant response rating, Barley, Spring [8, 14]: 0 | Plant response rating, Barley, Spring [8, 15]: 0 | Plant response rating, Barley, Spring [8, 16]: 10 | Plant response rating, Barley, Spring [8, 17]: 75 | Plant response rating, Wheat, Spring [9, 14]: 0 | Plant response rating, Wheat, Spring [9, 15]: 50 | Plant response rating, Wheat, Spring [9, 16]: 60 | Plant response rating, Wheat, Spring [9, 17]: 90 | Plant response rating, Mustard, Wild [10, 14]: 0 | Plant response rating, Mustard, Wild [10, 15]: 0 | Plant response rating, Mustard, Wild [10, 17]: 0 | Plant response rating, Oat, Wild (wild oat (Avena fatua); [14]): 0 | Plant response rating, Oat, Wild (wild oat (Avena fatua); [15]): 50 | Plant response rating, Oat, Wild (wild oat (Avena fatua); [16]): 65 | Plant response rating, Oat, Wild (wild oat (Avena fatua); [17]): 75 | Plant response rating, Windgrass [11, 14]: 0 | Plant response rating, Windgrass [11, 15]: 20 | Plant response rating, Windgrass [11, 16]: 50 | Plant response rating, Windgrass [11, 17]: 70 | Plant response rating, Barley, Winter [12, 14]: 0 | Plant response rating, Barley, Winter [12, 15]: 0 | Plant response rating, Barley, Winter [12, 16]: 0 | Plant response rating, Barley, Winter [12, 17]: 75 | Plant response rating, Wheat, Winter [13, 14]: 0 | Plant response rating, Wheat, Winter [13, 15]: 0 | Plant response rating, Wheat, Winter [13, 16]: 60 | Plant response rating, Wheat, Winter [13, 17]: 80
